# Measured values reported in patent US11344574B2, “Fluoro substituted porphyrin compounds, pharmaceutical compositions comprising the same, and methods of preparing and using the same” (Duke University, priority 2017, dated 2022).
# Entries after “also recorded” stand apart in the source; their conditions may differ.
# Legend:
# [1] = SOD mimicking: catalysis of O2.^− dismutation; type: biochemical; conditions: ability to mimic SOD enzyme in catalysis of O2.^− dismutation
# [2] = Metal-centered reduction potential for the Mn^IIIP/Mn^IIP redox couple; type: physicochemical; conditions: vs normal hydrogen electrode
# [3] = Ability of MnP to catalyze ascorbate oxidation, initial rates assessed spectrally; conditions: initial rate of ascorbate oxidation; 10 μM MnP, 1 mM Asc, aerobic, 25 °C, pH 7.8
# 4T1 breast tumor = experiment: Mouse flank 4T1 tumor radio- and chemosensitization study, MnP 0.2 mg/kg; type: in vivo; conditions: triple combination MnP 0.2 mg/kg sc + ascorbate + radiation, listed as MnTF3Pen-2-PyP^5+
# Protocol: Female Balb/c mice were injected subcutaneously (on flank) with 1 million cells. […] 24 hours after the first injection of Mn porphyrins the radiation started at 2.5 Gy per day for 3 days. Fractionated radiation regime was used to better reflect the clinical scenario. […] Injection of drugs was continued daily. Once the study was completed when mice reached on average 2000 mm^3 volume, the mice were sacrificed, and tumors, normal muscle from opposite leg and liver were collected and levels of Mn porphyrins analyzed by LCMS/MS.
# wild strain E. coli = experiment: Toxicity by aerobic growth of wild strain E. coli; type: cell-based; conditions: vs MnTnHex-2-PyP^5+ and MnTnBuOE-2-PyP^5+
# Protocol: Herein we explored the member of a new class of Mn porphyrin-based therapeutics, MnTF3Pen-2-PyP^5+ (MnTF3Pen, Mn4) (FIG. 1). We have maintained major structural properties that support the redox-activity of MnPs, yet modified peripheral substituents by introducing polar fluorine atoms. […] The properties of Mn porphyrins (given in arbitrary units) which cumulatively define their therapeutic index: SOD-like activities, lipophilicities and toxicities. […] Toxicities are evaluated based on the aerobic growth of wild strain E. coli—a simple but accurate assay used for over 2 decades to identify the compounds with clinical potential.
# [4] = Lipophilicity by TLC retention factor Rf on silica; type: physicochemical; conditions: vs two non-fluorinated lipophilic analogs
# Text: Fluorination enhances the lipophilicity of MnPs as described with TLC retention factor, Rf (compound path/solvent path). Rf was obtained on silica gel plates using acetonitrile:KNO3(sat):water=8:1:1 as previously described (Tovmasyan A, Carballal S, Ghazaryan R, Melikyan L, Weitner T, Maia C G, Reboucas J S, Radi R, Spasojevic I, Benov L, and Batinic-Haberle I. Rational Design of Superoxide Dismutase (SOD) Mimics: The Evaluation of the Therapeutic Potential of New Cationic Mn Porphyrins with Linear and Cyclic Substituents. Inorg Chem 53: 11467-83, 2014).
# In some embodiments, the fluoro-substituted porphyrins of the present invention may have enhanced lipophilicity (e.g., compared to non-fluoro-substituted porphyrins). Lipophilicity can be measured via thin layer chromatography. The relative lipophilicity of a group of compounds can be determined in a given solvent system. […] The fluoro-substituted porphyrins of the present invention suitably have a lipophilicity of greater than zero in a solvent system of acetonitrile:water:KNO3 (saturated aqueous) (8:1:1). Alternatively, the lipophilicity may be quantified by the standard octanol/water partition coefficient (log P). In some embodiments, the lipophilic fluoro-substituted porphyrins may have a greater bioavailability than their hydrophilic analogs. […]
# [5] = Toxicity in a rat and mouse study; type: in vivo
# Text: Also, such differences could not have been anticipated based just on the aqueous chemistry and diverse physical properties of those compounds. Such effects likely result from the differences in the polarities of those molecules: strongly polar character of 12 fluorine atoms relative to 4 polar oxygen atoms. […] Despite being equally lipophilic, a higher efficacy of MnTF3Pen-2-PyP^5+ than MnTnBuOE-2-PyP^5+ was observed.
# [6] = Brain accumulation of MnPs with different administration routes; type: in vivo; conditions: route-dependent
# Text: MnF3Pen accumulates in the brain at levels which are (route-dependently) up to 50% lower than those of MnBuOE due to its more polar fluorine atoms.
# prostate tissue = experiment: Radioprotection of prostate tissue, histopathology (H&E); conditions: for radioprotection of prostate tissue: rats, 0.5 mg/kg sc, single 20 Gy RT, 0.5 mg/kg
# Protocol: Tissue was stained with H&E.
# Mn4 administration started at 24 hours before RT. Mn4 was given at 0.5 mg/kg sc for the first 4 weeks daily except for weekends, and then twice weekly for the next 5 weeks. Single 20 Gy RT dose was given.
# The tissues were preserved, half of them in formalin and another half snap-frozen for different analyses. Prostate is the only tissue directly radiated and the penile function was known to suffer radiation damage.
# [7] = system: radiation-induced erectile dysfunction; experiment: Radioprotection of erectile function after 20 Gy radiation; type: in vivo; conditions: rats, 0.5 mg/kg sc, single 20 Gy RT, with and without ascorbate, 9 weeks
# Protocol: Mn4 administration started at 24 hours before RT. Mn4 was given at 0.5 mg/kg sc for the first four weeks daily (except for weekends) and then twice weekly for next five weeks. Single 20 Gy RT dose was given stereotactically.
# 10 rats per group were studied. MnF3Pen was given at 0.5 mg/kg sc for the first four weeks daily except for weekends, and then twice weekly for the next five weeks.
# Single radiation dose of 20 Gy was delivered stereotactically, using image guided small animal radiator.
# It was used at 0.1 mg/kg (at week 6 and 9).
# Based on earlier studies, erectile dysfunction has been assessed at 9 weeks. […] Mn4 administration started at 24 hours before RT. Mn4 was given at 0.5 mg/kg sc for the first 4 weeks daily except for weekends, and then twice weekly for the next 5 weeks. Single 20 Gy RT dose was given.
# [8] = Maximal tolerable dose (MTD) studies; type: in vivo, rats; conditions: subcutaneous
# Protocol: The dose we identified as entirely safe was then given for 2 weeks. […] A dose above 0.5 mg/kg of MnTF3Pen-2-PyP^5+ seems to impose some toxicity expressed as hypotonia and reluctance to ambulate. We have thus decided to continue with 0.5 mg/kg which appears as safe non-toxic MTD dose for multiple dosing.
# [9] = Pharmacokinetic studies in plasma and organs, 1 mg/kg; type: in vivo, rats; conditions: for Cmax: male, rat
# Protocol: Whenever possible, the PK profiles of MnF3Pen were compared to MnTnBuOE-2-PyP^5+ (MnBuOE, Mn2), the drug presently in two clinical trials.
# 3 rats were used per time point. The following time points were tested: 30 min, 1, 2, 6, 24 hours, and 3 and 7 days. The tissues were taken after the rats were perfused with PBS to eliminate blood content of organs and, therefore its interference with blood content of organs. At 6 h, three additional rats were used to assess the effect of perfusion. In addition to plasma, the following organs were analyzed: liver, kidney, prostate, penis, testis, rectum, bladder, and brain. We have collected liver due to Mn porphyrins accumulating at the highest level in this organ; it then serves as a depot to maintain levels of drug in plasma and other organs. We also took the brain because toxicity of Mn porphyrins has been seen at that level present in the brain. Whenever possible the comparison with MnBuOE has been done. […] MnBuOE was used as internal standard.
smiles,measurement,setting,value
"FC(F)(F)CCCC[n+]1ccccc1C1=C2C=CC3=[N+]2[Mn]24[n]5c1ccc5C(c1cccc[n+]1CCCCC(F)(F)F)=C1C=CC(=[N+]12)C(c1cccc[n+]1CCCCC(F)(F)F)=c1ccc([n]14)=C3c1cccc[n+]1CCCCC(F)(F)F [Mn4, 5,10,15,20-tetra(Mn(III) 5′,5′,5′-trifluoropentylpyridinium-2-yl)porphinato pentachloride]",log kcat (O2−^•),[1],7.48
same,"E1/2, mV vs NHE",[2],+288 mV
same,v0(Asc oxid),[3],297 nM/s
same,tumor growth inhibition,4T1 breast tumor,larger tumor growth inhibition; also recorded: Strong tumor suppression
same,toxicity,wild strain E. coli,less toxic
same,lipophilicity (in words),[4],more lipophilic
same,toxicity compared with MnTnBuOE-2-PyP^5+,[5],less toxicity
same,brain levels lower than those of MnBuOE,[6],up to 50%
same,"morphological findings, prostate glands",prostate tissue; RT+Mn4+Asc group (heading printed twice),"Local glands presented few large bizarre nuclei, some cells showed enlarged irregular nucleus and obvious nucleolus"
same,radioprotection of prostate tissue,prostate tissue,significant radioprotection of prostate tissue
same,radioprotection of prostate tissue,prostate tissue; listed as MnTF3Pen-2-PyP^5+,suppresses radiation (RT) damage to prostate tissue
same,bladder and rectum pathology,prostate tissue; with respect to control non-radiated tissues,no changes on bladder and rectum pathology
same,prevention of radiation-induced erectile dysfunction,[7],fully prevented radiation-induced erectile dysfunction
same,MTD at 2 weeks,"[8]; rat, in vivo, sc, safe non-toxic dose for multiple dosing",0.5 mg/kg
same,"dose imposing some toxicity (hypotonia, reluctance to ambulate)",[8],above 0.5 mg/kg
same,levels in the tissues of interest,[9]; 1 mg/kg,higher than 100 nM
same,tolerability,[9]; 1 mg/kg,well tolerated
same,accumulation in liver,"[9]; 1 mg/kg, vs MnBuOE",lower accumulation in liver
same,plasma half-life,"[9]; 1 mg/kg, vs MnBuOE",longer plasma half-life
same,levels in all tissues of interest,[9]; FIG. 11,above 0.1 μM
same,"highest levels, liver","[9]; liver, FIG. 11",about 1 μM
same,Cmax,"[9]; bladder, 1 mg/kg",450 nM
same,Cmax,"[9]; penis, 1 mg/kg",250 nM
same,Cmax,"[9]; prostate, 1 mg/kg",150 nM
same,Cmax,"[9]; rectum, 1 mg/kg",105 nM
same,Cmax,"[9]; testes, 1 mg/kg",190 nM
